From ChEMBL document CHEMBL5465560, “Selectivity Literature for EUbOPEN Chemogenomic Library” (2024)

What was measured:
[1] = target: T1, Serine/threonine-protein kinase PLK4 (Homo sapiens) (UniProt O00444); experiment: Selectivity interaction (KinomeScan (DiscoverX)) EUB0000695a PLK4; conditions: at 100 nM
T1 sequence (whole entry): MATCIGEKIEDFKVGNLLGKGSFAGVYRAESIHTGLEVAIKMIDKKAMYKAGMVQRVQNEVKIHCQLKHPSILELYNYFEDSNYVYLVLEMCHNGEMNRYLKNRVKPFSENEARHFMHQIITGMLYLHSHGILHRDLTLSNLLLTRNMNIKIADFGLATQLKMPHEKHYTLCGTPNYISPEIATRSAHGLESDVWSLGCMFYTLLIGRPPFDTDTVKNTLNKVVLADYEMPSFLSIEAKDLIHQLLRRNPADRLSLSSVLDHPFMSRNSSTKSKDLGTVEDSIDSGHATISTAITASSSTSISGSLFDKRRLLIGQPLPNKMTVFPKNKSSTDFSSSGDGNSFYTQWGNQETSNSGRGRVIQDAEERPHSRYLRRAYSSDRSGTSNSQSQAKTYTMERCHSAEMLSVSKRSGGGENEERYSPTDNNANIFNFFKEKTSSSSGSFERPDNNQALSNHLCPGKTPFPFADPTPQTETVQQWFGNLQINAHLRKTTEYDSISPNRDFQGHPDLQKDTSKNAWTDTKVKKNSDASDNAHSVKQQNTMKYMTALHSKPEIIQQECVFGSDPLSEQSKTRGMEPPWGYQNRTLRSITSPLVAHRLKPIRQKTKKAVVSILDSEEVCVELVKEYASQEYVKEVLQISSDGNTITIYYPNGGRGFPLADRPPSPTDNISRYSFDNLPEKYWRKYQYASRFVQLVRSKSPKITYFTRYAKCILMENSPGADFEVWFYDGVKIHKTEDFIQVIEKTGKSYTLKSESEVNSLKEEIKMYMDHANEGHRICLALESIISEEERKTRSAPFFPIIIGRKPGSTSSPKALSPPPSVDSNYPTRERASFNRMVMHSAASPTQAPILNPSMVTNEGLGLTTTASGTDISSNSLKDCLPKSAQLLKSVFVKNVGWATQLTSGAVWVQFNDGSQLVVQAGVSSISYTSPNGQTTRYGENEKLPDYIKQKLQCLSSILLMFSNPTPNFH

[2] = target: T2, Serine/threonine-protein kinase 17A (Homo sapiens) (UniProt Q9UEE5); experiment: Selectivity interaction (LanthaScreen Eu Kinase Binding Assay) EUB0001632a STK17A; conditions: at 10 µM
T2 sequence (whole entry): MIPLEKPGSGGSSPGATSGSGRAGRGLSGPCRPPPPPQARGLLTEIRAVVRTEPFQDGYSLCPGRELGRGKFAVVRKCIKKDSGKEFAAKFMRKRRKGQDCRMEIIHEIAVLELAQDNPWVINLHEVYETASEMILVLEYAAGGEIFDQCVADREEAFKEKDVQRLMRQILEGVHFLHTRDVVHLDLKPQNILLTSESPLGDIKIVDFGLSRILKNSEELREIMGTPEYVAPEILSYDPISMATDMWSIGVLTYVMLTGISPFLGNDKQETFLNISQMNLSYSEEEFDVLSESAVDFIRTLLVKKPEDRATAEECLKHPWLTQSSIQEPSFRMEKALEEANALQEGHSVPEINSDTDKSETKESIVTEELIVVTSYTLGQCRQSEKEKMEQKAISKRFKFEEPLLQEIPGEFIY

[3] = target: Proto-oncogene tyrosine-protein kinase ROS (Homo sapiens) (UniProt P08922); conditions: at 10 µM
[4] = target: Serine/threonine-protein kinase PLK1 (Homo sapiens, UniProt P53350)
[5] = target: T3, Dual specificity mitogen-activated protein kinase kinase 6 (Homo sapiens) (UniProt P52564); experiment: Selectivity interaction (Kinase panel (Invitrogen)) EUB0000639a MAP2K6; conditions: at 200 nM
T3 sequence (whole entry): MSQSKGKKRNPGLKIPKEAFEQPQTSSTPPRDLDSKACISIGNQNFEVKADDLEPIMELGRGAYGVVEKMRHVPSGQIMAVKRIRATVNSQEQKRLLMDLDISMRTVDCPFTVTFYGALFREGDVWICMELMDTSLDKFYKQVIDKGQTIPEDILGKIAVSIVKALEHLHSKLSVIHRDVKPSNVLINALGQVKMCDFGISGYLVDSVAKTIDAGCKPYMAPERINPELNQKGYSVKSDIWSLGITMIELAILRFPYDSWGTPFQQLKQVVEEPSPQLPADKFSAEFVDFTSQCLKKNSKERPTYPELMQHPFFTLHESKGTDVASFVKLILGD

[6] = target: T4, Serine/threonine-protein kinase TNNI3K (Homo sapiens) (UniProt Q59H18); experiment: Selectivity interaction (KinomeScan (DiscoverX)) EUB0000655a TNNI3K; conditions: at 10 µM
T4 sequence (whole entry): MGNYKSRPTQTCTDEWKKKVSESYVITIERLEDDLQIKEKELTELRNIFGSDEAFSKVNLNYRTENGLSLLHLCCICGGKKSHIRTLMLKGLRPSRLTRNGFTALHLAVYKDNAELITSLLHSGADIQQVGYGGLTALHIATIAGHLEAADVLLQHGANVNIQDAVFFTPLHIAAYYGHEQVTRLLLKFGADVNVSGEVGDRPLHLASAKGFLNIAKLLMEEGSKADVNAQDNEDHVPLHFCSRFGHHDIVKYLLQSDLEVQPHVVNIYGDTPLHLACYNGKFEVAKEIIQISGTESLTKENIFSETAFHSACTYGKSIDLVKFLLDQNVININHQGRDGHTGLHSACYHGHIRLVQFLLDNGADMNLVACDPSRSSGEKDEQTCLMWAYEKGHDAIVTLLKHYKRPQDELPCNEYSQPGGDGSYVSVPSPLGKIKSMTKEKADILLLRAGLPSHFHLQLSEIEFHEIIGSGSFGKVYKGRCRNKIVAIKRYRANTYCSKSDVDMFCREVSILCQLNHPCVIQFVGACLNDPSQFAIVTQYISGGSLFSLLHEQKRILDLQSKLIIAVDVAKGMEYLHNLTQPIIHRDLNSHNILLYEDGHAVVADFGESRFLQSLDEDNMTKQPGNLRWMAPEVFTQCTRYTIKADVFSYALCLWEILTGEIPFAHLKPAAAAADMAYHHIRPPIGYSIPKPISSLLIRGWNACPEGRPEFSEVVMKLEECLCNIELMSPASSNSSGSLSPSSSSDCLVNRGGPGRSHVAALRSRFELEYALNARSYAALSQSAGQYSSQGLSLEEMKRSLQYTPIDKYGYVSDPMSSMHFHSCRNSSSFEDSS

[7] = target: Tyrosine-protein kinase FRK (Homo sapiens) (UniProt P42685); conditions: at 10 µM
[8] = target: Cyclin-dependent kinase 17 (Homo sapiens) (UniProt Q00537); experiment: Selectivity interaction (Ambit KINOMEscan and KiNATiv profiling in Jurkat cells) EUB0000090b CDK17; assay type: cell-based; conditions: at 1 µM
Chain of Cyclin-dependent kinase 17 (Homo sapiens) (Q00537 whole entry, looked up): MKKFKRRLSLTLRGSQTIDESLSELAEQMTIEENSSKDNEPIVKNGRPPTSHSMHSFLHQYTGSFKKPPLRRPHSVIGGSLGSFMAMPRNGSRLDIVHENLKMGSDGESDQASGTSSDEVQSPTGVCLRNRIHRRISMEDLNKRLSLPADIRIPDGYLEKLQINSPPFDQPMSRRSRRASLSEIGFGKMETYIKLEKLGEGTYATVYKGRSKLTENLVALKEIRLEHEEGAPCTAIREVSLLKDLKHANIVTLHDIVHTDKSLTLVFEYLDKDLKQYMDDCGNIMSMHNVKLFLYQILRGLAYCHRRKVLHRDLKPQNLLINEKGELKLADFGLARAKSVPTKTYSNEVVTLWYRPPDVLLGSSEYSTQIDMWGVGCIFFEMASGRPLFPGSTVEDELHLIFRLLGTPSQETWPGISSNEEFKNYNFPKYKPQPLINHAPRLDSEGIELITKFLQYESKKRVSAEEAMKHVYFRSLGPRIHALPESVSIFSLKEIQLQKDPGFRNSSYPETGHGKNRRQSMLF

Chain of Tyrosine-protein kinase FRK (Homo sapiens) (P42685 whole entry): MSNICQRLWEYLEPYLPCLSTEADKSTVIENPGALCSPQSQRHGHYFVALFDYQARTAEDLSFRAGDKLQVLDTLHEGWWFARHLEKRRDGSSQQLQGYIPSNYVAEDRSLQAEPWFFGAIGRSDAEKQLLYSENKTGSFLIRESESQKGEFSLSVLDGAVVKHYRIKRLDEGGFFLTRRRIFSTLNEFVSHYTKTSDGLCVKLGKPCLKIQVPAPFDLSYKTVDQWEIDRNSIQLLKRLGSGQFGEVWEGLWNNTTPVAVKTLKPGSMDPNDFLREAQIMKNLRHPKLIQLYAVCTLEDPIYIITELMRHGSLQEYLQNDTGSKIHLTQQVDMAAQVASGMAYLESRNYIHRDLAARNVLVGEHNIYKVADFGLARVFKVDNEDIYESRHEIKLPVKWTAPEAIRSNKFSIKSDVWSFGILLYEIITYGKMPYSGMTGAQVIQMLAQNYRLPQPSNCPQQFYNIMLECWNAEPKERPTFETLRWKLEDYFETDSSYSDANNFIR
Chain of Serine/threonine-protein kinase PLK1 (P53350 whole entry): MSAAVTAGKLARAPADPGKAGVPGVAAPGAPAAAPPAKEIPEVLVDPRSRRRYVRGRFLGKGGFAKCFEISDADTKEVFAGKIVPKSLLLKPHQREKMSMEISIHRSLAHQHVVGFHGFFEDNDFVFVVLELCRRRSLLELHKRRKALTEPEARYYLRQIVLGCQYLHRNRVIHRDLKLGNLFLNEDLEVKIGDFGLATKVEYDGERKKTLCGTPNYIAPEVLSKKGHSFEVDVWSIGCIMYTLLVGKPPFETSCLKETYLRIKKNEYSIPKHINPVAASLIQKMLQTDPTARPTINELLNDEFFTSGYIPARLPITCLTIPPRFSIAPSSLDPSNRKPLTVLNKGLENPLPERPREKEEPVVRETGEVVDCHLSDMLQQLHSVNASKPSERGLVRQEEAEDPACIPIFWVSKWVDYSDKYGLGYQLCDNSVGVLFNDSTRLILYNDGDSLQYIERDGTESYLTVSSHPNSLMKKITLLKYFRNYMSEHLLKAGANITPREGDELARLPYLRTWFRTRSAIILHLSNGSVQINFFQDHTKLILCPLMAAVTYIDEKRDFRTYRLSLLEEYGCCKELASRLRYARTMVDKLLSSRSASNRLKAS
Chain of Proto-oncogene tyrosine-protein kinase ROS (Homo sapiens) (P08922 whole entry): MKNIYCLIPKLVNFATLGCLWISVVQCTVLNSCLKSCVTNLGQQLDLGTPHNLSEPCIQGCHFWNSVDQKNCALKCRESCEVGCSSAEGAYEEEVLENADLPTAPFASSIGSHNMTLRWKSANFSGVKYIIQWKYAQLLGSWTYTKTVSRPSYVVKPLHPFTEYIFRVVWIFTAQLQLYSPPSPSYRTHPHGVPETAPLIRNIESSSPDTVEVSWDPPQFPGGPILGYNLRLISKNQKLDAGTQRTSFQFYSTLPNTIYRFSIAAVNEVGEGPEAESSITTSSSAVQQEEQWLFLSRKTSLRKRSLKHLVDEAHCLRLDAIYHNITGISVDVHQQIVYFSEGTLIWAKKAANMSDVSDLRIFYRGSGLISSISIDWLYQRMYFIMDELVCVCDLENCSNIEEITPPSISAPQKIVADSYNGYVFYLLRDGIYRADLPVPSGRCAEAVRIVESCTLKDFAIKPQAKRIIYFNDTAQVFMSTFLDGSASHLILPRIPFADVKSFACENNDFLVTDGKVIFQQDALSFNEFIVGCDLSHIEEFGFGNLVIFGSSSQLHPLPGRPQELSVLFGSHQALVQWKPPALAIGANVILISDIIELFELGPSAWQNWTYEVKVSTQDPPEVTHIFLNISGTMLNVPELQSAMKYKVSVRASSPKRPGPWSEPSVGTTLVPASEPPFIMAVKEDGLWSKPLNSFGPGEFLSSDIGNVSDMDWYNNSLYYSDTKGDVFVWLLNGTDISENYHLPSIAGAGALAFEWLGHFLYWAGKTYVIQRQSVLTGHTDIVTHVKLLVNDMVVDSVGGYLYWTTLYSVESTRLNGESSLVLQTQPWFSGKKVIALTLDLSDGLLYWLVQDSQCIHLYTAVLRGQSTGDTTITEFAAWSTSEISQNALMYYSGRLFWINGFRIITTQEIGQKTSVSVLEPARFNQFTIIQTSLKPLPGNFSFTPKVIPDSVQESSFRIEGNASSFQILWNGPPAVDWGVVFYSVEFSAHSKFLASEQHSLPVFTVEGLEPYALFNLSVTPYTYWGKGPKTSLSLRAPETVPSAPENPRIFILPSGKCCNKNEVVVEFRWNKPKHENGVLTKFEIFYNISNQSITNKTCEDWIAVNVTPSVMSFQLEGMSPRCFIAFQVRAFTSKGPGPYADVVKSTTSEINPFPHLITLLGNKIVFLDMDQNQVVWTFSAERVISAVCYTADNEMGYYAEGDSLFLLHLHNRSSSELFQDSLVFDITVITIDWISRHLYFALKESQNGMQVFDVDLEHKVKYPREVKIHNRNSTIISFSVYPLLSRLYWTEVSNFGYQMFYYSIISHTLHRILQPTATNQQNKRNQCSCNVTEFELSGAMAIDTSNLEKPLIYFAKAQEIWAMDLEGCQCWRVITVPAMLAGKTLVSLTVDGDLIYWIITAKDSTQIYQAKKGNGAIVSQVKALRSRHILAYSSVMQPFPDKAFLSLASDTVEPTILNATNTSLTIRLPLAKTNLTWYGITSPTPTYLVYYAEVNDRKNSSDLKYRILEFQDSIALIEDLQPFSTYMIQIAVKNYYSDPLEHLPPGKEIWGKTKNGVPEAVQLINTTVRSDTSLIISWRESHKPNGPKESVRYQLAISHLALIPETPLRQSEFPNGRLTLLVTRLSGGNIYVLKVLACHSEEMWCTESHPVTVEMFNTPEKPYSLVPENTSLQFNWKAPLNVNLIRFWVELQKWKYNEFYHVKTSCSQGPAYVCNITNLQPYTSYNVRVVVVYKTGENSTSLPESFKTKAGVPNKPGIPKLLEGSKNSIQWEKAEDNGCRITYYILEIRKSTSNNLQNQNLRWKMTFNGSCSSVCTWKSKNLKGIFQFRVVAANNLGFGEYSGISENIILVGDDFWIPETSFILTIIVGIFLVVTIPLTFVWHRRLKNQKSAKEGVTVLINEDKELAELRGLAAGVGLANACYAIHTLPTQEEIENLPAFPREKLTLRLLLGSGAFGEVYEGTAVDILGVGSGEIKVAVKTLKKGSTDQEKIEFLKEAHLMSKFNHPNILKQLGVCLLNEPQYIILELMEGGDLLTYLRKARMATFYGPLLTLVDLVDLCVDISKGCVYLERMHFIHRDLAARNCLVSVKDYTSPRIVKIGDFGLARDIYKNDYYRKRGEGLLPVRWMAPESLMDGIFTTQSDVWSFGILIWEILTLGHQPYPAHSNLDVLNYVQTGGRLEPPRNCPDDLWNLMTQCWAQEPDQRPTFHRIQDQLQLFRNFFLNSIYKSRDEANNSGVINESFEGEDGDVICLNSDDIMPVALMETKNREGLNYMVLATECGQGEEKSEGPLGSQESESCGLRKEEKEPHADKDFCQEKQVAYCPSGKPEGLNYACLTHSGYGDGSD

## Cc1cc(F)c(C(=O)Nc2cccc(-c3nncn3C(C)C)n2)cc1-n1cnc(C2CC2)c1
[1]
  % of control: 100%

## Cn1cc(-n2cnc3c(NCc4nc5cc(Cl)c(Cl)cc5[nH]4)nc(N4CCOCC4)nc32)cn1
[2]
  % of inhibition: -13.2%

## Cc1cc([C@@H](C)Nc2ccccc2C(=O)O)c2nc(N3CCOCC3)cc(=O)n2c1 [AZD-6482]
[3]
  % of control: 100%

## CCc1cccc(CC)c1NC(=O)c1nn(C)c2c1CCc1cnc(Nc3ccc(C(=O)NC4CCN(C)CC4)cc3OC(F)(F)F)nc1-2
[4]
  IC50: > 10 µM

## CC[C@@H]1[C@H](F)C(=O)N[C@@H]1COc1nccc2cc(C(N)=O)c(OC)cc12 [ZIMLOVISERTIB]
[5]
  % of inhibition: 1.6%

## CN(C)CCOc1ccc(-c2nc(-c3ccncc3)c(-c3ccc4c(c3)CC/C4=N\O)[nH]2)cc1
[6]
  % of control: 76%

## CCN(CC)CCCCNc1ncc2cc(-c3cc(OC)cc(OC)c3)c(NC(=O)NC(C)(C)C)nc2n1
[7]
  % of control: 100%

## CN(C)C/C=C/C(=O)Nc1ccc(C(=O)N2CCCC(Nc3ncc(Cl)c(-c4c[nH]c5ccccc45)n3)C2)cc1 (stereo not drawn)
[8]
  % of control: 83%
